Reference: ChEMBL document CHEMBL1201862, “PubChem BioAssay data set” (2004)
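These data come from cells grown in 96-well plates and exposed to compound for 48 hours at five concentrations. Abbreviation: GI50, concentration required for 50% inhibition of growth.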 Activity calls are given as the source filed them. No stated cut-off is given here; in the data, active = GI50 up to about 1.1 µM and inactive = higher. Where a SMILES comes first, the peptide text is derived from it. [ ]: non-standard residue; d: D form. The star is where a group is joined. ξ: configuration not given here. NMeF = CN[C@@H](Cc1ccccc1)C(=O)O; NMeV = CN[C@H](C(=O)O)C(C)C; ξNMeN = CNC(CC(N)=O)C(=O)O; NMeA = CN[C@@H](C)C(=O)O; ξNMeV = CNC(C(=O)O)C(C)C; Boc = CC(C)(C)OC(=O)*

Key:
Assay in all cases: NCI anticancer screen, dose series, 48 h
OVCAR-5 = system: OVCAR-5
SR = system: SR
LOX IMVI = system: LOX IMVI
PC-3 = system: PC-3
BT-549 = system: BT-549
HCT-15 = system: HCT-15
MCF7 = system: MCF7
RXF 393 = system: RXF 393
T47D = system: T47D
NCI-H226 = system: NCI-H226
HOP-92 = system: HOP-92
UACC-62 = system: UACC-62
SK-MEL-28 = system: SK-MEL-28
MDA-MB-231 = system: MDA-MB-231
IGROV-1 = system: IGROV-1
HCT-116 = system: HCT-116
SNB-19 = system: SNB-19
K562 = system: K562
KM12 = system: KM12
A498 = system: A498

Compound	GI50 (OVCAR-5)	GI50 (SR)	GI50 (LOX IMVI)	GI50 (PC-3)	GI50 (BT-549)	GI50 (HCT-15)	GI50 (MCF7)	GI50 (RXF 393)	GI50 (T47D)	GI50 (NCI-H226)	GI50 (HOP-92)	GI50 (UACC-62)	GI50 (SK-MEL-28)	GI50 (MDA-MB-231)	GI50 (IGROV-1)	GI50 (HCT-116)	GI50 (SNB-19)	GI50 (K562)	GI50 (KM12)	GI50 (A498)
COC(=O)[C@H](C)N(C)C(=O)C(CC(N)=O)N(C)C(=O)[C@H](Cc1ccccc1)N(C)C(=O)[C@@H]1CCCN1C(=O)[C@H](C(C)C)N(C)C(=O)C(C(C)C)N(C)C(=O)[C@@H](NC(=O)OC(C)(C)C)C(C)C (stereo not given in full) (Boc-V[ξNMeV][NMeV]P[NMeF][ξNMeN][NMeA]-OMe)	> 50 µM (inactive)	21.3 µM (inactive)	> 50 µM (inactive)	> 50 µM (inactive)	> 50 µM (inactive)	> 75 µM	> 50 µM (inactive)	37.6 µM (inactive)	> 50 µM (inactive)	> 50 µM (inactive)	29 µM (inactive)	> 50 µM (inactive)	> 50 µM (inactive)	> 50 µM (inactive)	> 50 µM (inactive)	> 50 µM (inactive)	> 50 µM (inactive)	> 50 µM (inactive)	16.4 µM (inactive)	> 50 µM (inactive)
CC1CNC(c2ccc(-c3nc(-c4ccc(C5=NC(C)CN5)cc4)nc(N(C)C)n3)cc2)=N1 (stereo not given)	3.24 µM (inactive)	0.653 µM (active)	1.41 µM (inactive)	1.57 µM (inactive)	3.74 µM (inactive)	16.6 µM	1.42 µM (inactive)	3.22 µM (inactive)	2.71 µM (inactive)	2.02 µM (inactive)	3.14 µM (inactive)	1.73 µM (inactive)	2.69 µM (inactive)	1.31 µM (inactive)	4.06 µM (inactive)	0.964 µM (active)	1.75 µM (inactive)	1.41 µM (inactive)	2.23 µM (inactive)	2.05 µM (inactive)
CC(C)c1ccc2c(c1)CCC1C(C)(CN)CCCC21C (stereo not given)	1.76 µM (inactive)	1.1 µM (active)	1.43 µM (inactive)	1.59 µM (inactive)	1.88 µM (inactive)	1.54 µM	1.44 µM (inactive)	1.56 µM (inactive)	1.45 µM (inactive)	1.91 µM (inactive)	1.55 µM (inactive)	1.77 µM (inactive)	1.73 µM (inactive)	1.42 µM (inactive)	1.71 µM (inactive)	1.59 µM (inactive)	1.77 µM (inactive)	0.551 µM (active)	1.69 µM (inactive)	1.61 µM (inactive)
CC(Oc1ccc(Cl)cc1Cl)C(=O)NN1C(=O)CSC1c1ccc(Cl)cc1 (stereo not given)	> 100 µM (inactive)	19.5 µM (inactive)	56 µM (inactive)	38.5 µM (inactive)	43.7 µM (inactive)	> 100 µM	36.8 µM (inactive)	27 µM (inactive)	42.5 µM (inactive)	17.6 µM (inactive)	21 µM (inactive)	43.5 µM (inactive)	67.3 µM (inactive)	27.4 µM (inactive)	36.1 µM (inactive)	57.9 µM (inactive)	30.4 µM (inactive)	44.1 µM (inactive)	86.3 µM (inactive)	25.2 µM (inactive)
CC1(C)SC2C(C(=O)O)N=C(Cc3ccccc3)N2C1C(=O)O (stereo not given)	36.8 µM (inactive)	33.9 µM (inactive)	25.5 µM (inactive)	42.7 µM (inactive)	31 µM (inactive)	81.5 µM	34.2 µM (inactive)	34.6 µM (inactive)	24.4 µM (inactive)	29.8 µM (inactive)	42.8 µM (inactive)	> 100 µM (inactive)	52.4 µM (inactive)	43.3 µM (inactive)	> 100 µM (inactive)	24.9 µM (inactive)	32.5 µM (inactive)	62.7 µM (inactive)	> 100 µM (inactive)	53.7 µM (inactive)
Cc1c(C)c2c(c(N)c1C#N)C(=O)N(OS(=O)(=O)c1ccccc1)C2=O	> 100 µM (inactive)	27 µM (inactive)	26.2 µM (inactive)	35.6 µM (inactive)	19.9 µM (inactive)	20.9 µM	38 µM (inactive)	15.2 µM (inactive)	2.55 µM (inactive)	18.5 µM (inactive)	17 µM (inactive)	23.9 µM (inactive)	24.5 µM (inactive)	52.8 µM (inactive)	18.5 µM (inactive)	4.42 µM (inactive)	> 100 µM (inactive)	16.7 µM (inactive)	64.9 µM (inactive)	> 100 µM (inactive)
